Experimental data: patent US20140249135A1, “PIM KINASE INHIBITORS AND METHODS OF THEIR USE” (NOVARTIS AG, priority 2007, published 2014)
Where two headings read alike, the source gives them in different places.

Legend:
Pim1 kinase = Pim1 kinase (Homo sapiens, UniProt P11309); test: Pim1 ATP depletion assay; assay type: biochemical; settings: Pim1 ATP depletion assay;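 note: Luciferase-luciferin luminescence readout of residual ATP after PIM1 transfers phosphate to a peptide substrate, 40 µM ATP added, reaction run to roughly half ATP consumption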
Sequence of Pim1 kinase (P11309 whole entry): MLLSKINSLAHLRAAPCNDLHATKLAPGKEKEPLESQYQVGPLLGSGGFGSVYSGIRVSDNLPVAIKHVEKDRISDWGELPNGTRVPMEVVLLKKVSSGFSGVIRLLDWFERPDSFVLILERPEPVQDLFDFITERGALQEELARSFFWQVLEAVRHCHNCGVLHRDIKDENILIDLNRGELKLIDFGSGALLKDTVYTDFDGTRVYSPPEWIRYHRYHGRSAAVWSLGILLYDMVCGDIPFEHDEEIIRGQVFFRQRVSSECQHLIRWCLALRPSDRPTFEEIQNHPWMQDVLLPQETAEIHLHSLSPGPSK

Pim2 kinase = Pim2 kinase (Homo sapiens, UniProt Q9P1W9); test: Pim2 ATP depletion assay; assay type: biochemical;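 note: Luciferase-based luminescent readout of ATP remaining after PIM2 phosphorylates a BAD peptide, final 5 nM enzyme, 4 µM ATP, 10 µM peptide, 2.5% DMSO, run to roughly half ATP consumption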
Sequence of Pim2 kinase (Q9P1W9 whole entry): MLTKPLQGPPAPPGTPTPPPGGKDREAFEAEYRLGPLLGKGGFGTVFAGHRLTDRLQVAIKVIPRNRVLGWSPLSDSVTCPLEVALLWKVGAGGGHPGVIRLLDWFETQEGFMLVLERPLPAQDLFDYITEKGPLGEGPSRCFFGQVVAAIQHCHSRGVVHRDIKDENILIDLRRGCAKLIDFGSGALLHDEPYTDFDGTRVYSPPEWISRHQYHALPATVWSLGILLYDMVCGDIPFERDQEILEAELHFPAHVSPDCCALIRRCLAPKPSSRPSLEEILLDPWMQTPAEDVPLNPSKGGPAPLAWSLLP

Pim3 kinase = Pim3 kinase (Homo sapiens, UniProt Q86V86); test: Pim3 ATP depletion assay; assay type: biochemical
[1] = biological target: T1, human full length PKCE enzyme (Homo sapiens, UniProt Q02156); test: In vitro PKCE assay; assay type: biochemical; settings: 10 nM enzyme, 40 uM peptide substrate, 20 uM ATP, KinaseGlo Plus readout; read-out: PKCε IC50
T1 construct: human full length PKCE enzyme purchased from InVitrogen; purchased InVitrogen
T1 sequence (Q02156 1-737): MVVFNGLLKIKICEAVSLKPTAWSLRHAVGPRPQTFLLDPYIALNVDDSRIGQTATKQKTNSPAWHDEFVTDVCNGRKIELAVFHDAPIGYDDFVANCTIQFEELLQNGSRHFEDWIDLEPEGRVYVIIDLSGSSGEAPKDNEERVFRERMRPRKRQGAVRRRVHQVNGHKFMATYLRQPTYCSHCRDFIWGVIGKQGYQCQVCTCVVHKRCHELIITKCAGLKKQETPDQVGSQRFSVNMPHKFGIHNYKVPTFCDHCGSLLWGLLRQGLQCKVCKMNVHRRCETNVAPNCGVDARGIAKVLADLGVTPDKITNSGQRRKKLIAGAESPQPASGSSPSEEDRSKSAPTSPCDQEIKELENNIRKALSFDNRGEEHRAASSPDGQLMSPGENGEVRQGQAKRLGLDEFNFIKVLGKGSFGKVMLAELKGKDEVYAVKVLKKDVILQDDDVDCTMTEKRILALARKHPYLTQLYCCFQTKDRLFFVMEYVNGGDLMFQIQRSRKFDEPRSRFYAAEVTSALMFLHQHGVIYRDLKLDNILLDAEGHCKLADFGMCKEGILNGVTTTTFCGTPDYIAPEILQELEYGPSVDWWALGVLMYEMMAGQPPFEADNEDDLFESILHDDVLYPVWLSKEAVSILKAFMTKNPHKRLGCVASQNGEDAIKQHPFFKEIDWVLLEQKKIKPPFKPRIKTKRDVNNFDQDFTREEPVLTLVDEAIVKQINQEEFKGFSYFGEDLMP

KDR kinase = KDR kinase (Homo sapiens, UniProt P35968); test: KDR AlphaScreen assay; settings: KDR IC50 (μM)
Sequence of KDR kinase (P35968 20-1356): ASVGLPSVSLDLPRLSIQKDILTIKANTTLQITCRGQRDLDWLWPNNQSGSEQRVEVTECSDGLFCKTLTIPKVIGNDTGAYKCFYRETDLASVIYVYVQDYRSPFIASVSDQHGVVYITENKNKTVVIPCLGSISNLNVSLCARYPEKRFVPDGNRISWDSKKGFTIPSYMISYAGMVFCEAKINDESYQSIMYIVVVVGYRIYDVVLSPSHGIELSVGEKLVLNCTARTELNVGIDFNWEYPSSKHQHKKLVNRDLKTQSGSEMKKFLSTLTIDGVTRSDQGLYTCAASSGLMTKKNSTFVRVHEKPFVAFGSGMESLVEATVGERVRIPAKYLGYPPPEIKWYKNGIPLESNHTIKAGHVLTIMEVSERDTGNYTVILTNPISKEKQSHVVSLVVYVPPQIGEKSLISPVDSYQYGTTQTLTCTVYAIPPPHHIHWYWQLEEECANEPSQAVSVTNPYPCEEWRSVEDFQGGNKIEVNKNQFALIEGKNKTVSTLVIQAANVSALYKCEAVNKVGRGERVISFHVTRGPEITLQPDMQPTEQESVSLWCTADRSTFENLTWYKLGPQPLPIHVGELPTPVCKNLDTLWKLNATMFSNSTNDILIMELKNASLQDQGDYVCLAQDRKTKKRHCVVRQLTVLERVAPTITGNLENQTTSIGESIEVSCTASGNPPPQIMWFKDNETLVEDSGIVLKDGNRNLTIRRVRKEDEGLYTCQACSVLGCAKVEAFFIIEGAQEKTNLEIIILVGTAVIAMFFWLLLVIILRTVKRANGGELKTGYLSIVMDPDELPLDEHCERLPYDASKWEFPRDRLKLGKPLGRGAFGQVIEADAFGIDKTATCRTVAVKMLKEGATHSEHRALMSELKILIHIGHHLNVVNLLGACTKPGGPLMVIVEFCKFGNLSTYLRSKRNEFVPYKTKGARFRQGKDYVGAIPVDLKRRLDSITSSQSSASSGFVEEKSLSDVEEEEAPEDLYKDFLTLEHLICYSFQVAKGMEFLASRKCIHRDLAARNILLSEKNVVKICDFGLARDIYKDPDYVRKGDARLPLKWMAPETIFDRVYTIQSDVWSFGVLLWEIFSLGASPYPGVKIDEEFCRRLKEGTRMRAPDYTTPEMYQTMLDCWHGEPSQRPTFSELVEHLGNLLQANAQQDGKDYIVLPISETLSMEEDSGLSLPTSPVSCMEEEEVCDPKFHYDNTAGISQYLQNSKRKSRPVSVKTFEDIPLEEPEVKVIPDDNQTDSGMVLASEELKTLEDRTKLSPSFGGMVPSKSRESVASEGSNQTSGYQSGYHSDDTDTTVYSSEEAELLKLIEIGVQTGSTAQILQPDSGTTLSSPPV

In the case of `Nc1ncc(Br)nc1C(=O)Nc1cnccc1N1CCCC(NCc2ccccc2)C1` (stereo not drawn) [Example 598, 3-amino-6-bromo-pyrazine-2-carboxylic acid (3-benzylamino-3,4,5,6-tetrahydro-2H-[1,4′]bi-pyridinyl-3′-yl)-amide], the IC50 (Pim1 kinase; read-out: PIM1 IC50) is reported as less than 1 µM, the IC50 (Pim2 kinase; read-out: PIM2 IC50) is reported as 1 to 10 µM and the IC50 (Pim3 kinase; read-out: PIM3 IC50) is reported as less than 1 µM. For the same molecule, the IC50 [1] was 1 to 10 µM and the IC50 (KDR kinase) was 1 to 10 µM.
`COc1ccc(-c2cnc(N)c(C(=O)Nc3ccccc3N3CCC(N)CC3)n2)cc1` [Example 381, 3-amino-6-(4-methoxy-phenyl)-pyrazine-2-carboxylic acid [2-(4-amino-piperidin-1-yl)-phenyl]-amide] showed an IC50 (Pim1 kinase; read-out: IC50 (μM) PIM1) of less than 1 µM, an IC50 (Pim2 kinase; read-out: IC50 (μM) PIM2) of less than 1 µM and an IC50 (Pim3 kinase; read-out: IC50 (μM) PIM3) of less than 1 µM. It also gave an IC50 [1] of less than 1 µM and an IC50 (KDR kinase) of 1 to 10 µM.
Work on `COc1cncc(-c2cnc(N)c(C(=O)Nc3cnccc3N3CCNCC3)n2)n1` [Example 360, 5-amino-6′-methoxy-[2,2′]bipyrazinyl-6-carboxylic acid (4-piperazin-1-yl-pyridin-3-yl)-amide] yielded an IC50 (Pim1 kinase; read-out: IC50 (μM) PIM1) of 1 to 10 µM, an IC50 (Pim2 kinase; read-out: IC50 (μM) PIM2) greater than 25 µM and an IC50 (Pim3 kinase; read-out: IC50 (μM) PIM3) of 1 to 10 µM. It also gave an IC50 [1] of 1 to 10 µM and an IC50 (KDR kinase) of less than 1 µM.
Molecule `NC(=O)c1cccc(-c2cnc(N)c(C(=O)Nc3ccccc3N3CCCC(N)C3)n2)c1` (stereo not drawn) [Example 373, 3-amino-6-(3-carbamoyl-phenyl)-pyrazine-2-carboxylic acid [2-(3-amino-piperidin-1-yl)-phenyl]-amide] has an IC50 [1] of less than 1 µM and an IC50 (KDR kinase) of less than 1 µM.
`Nc1ncc(-c2ccccc2F)nc1C(=O)Nc1ccccc1N1CCCC(N)C1` (stereo not drawn) [Example 374, 3-amino-6-(2-fluoro-phenyl)-pyrazine-2-carboxylic acid [2-(3-amino-piperidin-1-yl)-phenyl]-amide] gave an IC50 [1] of less than 1 µM and an IC50 (KDR kinase) of 1 to 10 µM.
`Cc1ccccc1-c1cnc(N)c(C(=O)Nc2[nH]c(=O)ncc2N2CCCC(N)C2)n1` (stereo not drawn) [Example 400, 3-amino-6-o-tolyl-pyrazine-2-carboxylic acid [5-(3-amino-piperidin-1-yl)-2-oxo-2,3-dihydro-pyrimidin-4-yl]-amide] was tested, and the IC50 [1] was 1 to 10 µM and the IC50 (KDR kinase) was less than 1 µM.
`Nc1ccc(-c2cncc(O)n2)nc1C(=O)Nc1cnccc1N1CCC[C@H](N)C1` [Example 522, 3-Amino-6-(6-hydroxy-pyrazin-2-yl)-pyridine-2-carboxylic acid (3-amino-3,4,5,6-tetrahydro-2H-[1,4′]bipyridinyl-3′-yl)-amide] showed an IC50 (Pim1 kinase; read-out: IC50 (μM) PIM1) of less than 1 µM, an IC50 (Pim2 kinase; read-out: IC50 (μM) PIM2) of less than 1 µM and an IC50 (Pim3 kinase; read-out: IC50 (μM) PIM3) of less than 1 µM. The IC50 (KDR kinase) was 1 to 10 µM.
With `Nc1ccc(-c2ccccc2)nc1C(=O)Nc1cnccc1N1CCC[C@H](N)C1` [Example 524, 3-Amino-6-phenyl-pyridine-2-carboxylic acid (3-amino-3,4,5,6-tetrahydro-2H-[1,4′]bipyridinyl-3′-yl)-amide] the IC50 (Pim1 kinase; read-out: IC50 (μM) PIM1) was less than 1 µM, the IC50 (Pim2 kinase; read-out: IC50 (μM) PIM2) was less than 1 µM and the IC50 (Pim3 kinase; read-out: IC50 (μM) PIM3) was less than 1 µM. It also gave an IC50 (KDR kinase) of 1 to 10 µM.
For `N[C@H]1CCCN(c2ccncc2NC(=O)c2ccnc(-c3c(F)cccc3F)n2)C1` [Example 249, N-{4-[(3S)-3-aminopiperidin-1-yl]pyridin-3-yl}-2-(2,6-difluorophenyl)pyrimidine-4-carboxamide N-{4-[(3S)-3-aminopiperidin-1-yl]pyridin-3-yl}-2-(2,6-difluorophenyl)-pyrimidine-4-carboxamide], the IC50 (Pim1 kinase; read-out: IC50 (μM) PIM1) was less than 1 µM, the IC50 (Pim2 kinase; read-out: IC50 (μM) PIM2) was less than 1 µM and the IC50 (Pim3 kinase; read-out: IC50 (μM) PIM3) was less than 1 µM. The IC50 (KDR kinase) was 10 to 25 µM.
`COc1ccc(-c2cnc(N)c(C(=O)Nc3ccccc3N3CCCC(N)C3)n2)cc1` (stereo not drawn) [Example 375, 3-amino-6-(4-methoxy-phenyl)-pyrazine-2-carboxylic acid [2-(3-amino-piperidin-1-yl)-phenyl]-amide] was tested, and the IC50 [1] was less than 1 µM and the IC50 (KDR kinase) was 1 to 10 µM.
`CC(C)NC(=O)c1ccc(F)c(-c2ncc(N)c(C(=O)Nc3cnccc3N3CCC[C@H](N)C3)n2)c1` [Example 542, 5-Amino-2-(2-fluoro-5-isopropylcarbamoyl-phenyl)-pyrimidine-4-carboxylic acid (3-amino-3,4,5,6-tetrahydro-2H-[1,4′]bipyridinyl-3′-yl)-amide] was tested, and the IC50 (Pim1 kinase; read-out: PIM1 IC50) was less than 1 µM, the IC50 (Pim2 kinase; read-out: PIM2 IC50) was less than 1 µM and the IC50 (Pim3 kinase; read-out: PIM3 IC50) was less than 1 µM. The IC50 (KDR kinase) was 10 to 25 µM.
